Reference: the supplement of paper PMC13380429

Assays:
Details in all cases: 72 h
Calu-3 [1] = assay: drug sensitivity score (DSS) for viability; higher = more toxic; extreme values may be limits of the assay
U2OS [2] = assay: as above
Caco-2 [3] = assay: as above
HepG2 [4] = assay: as above
Vero E6 [5] = assay: as above
Calu-3 [6] = assay: relative viability EC50 (midpoint between 100% and the lowest measured viability); higher = less toxic
U2OS [7] = assay: as above
Caco-2 [8] = assay: as above
HepG2 [9] = assay: as above
Vero E6 [10] = assay: as above
Calu-3 [11] = assay: cell viability relative to DMSO; higher = less toxic
U2OS [12] = assay: as above
Caco-2 [13] = assay: as above
HepG2 [14] = assay: as above
Vero E6 [15] = assay: as above

Row | SMILES | drug sensitivity score (Calu-3 [1]) | drug sensitivity score (U2OS [2]) | drug sensitivity score (Caco-2 [3]) | drug sensitivity score (HepG2 [4]) | drug sensitivity score (Vero E6 [5]) | relative viability EC50 (Calu-3 [6]) [µM] | relative viability EC50 (U2OS [7]) [µM] | relative viability EC50 (Caco-2 [8]) [µM] | relative viability EC50 (HepG2 [9]) [µM] | relative viability EC50 (Vero E6 [10]) [µM] | cell viability (Calu-3 [11]; 1 nM) [%] | cell viability (Calu-3 [11]; 10 nM) [%] | cell viability (Calu-3 [11]; 100 nM) [%] | cell viability (Calu-3 [11]; 1000 nM) [%] | cell viability (Calu-3 [11]; 10000 nM) [%] | cell viability (U2OS [12]; 1 nM) [%] | cell viability (U2OS [12]; 10 nM) [%] | cell viability (U2OS [12]; 100 nM) [%] | cell viability (U2OS [12]; 1000 nM) [%] | cell viability (U2OS [12]; 10000 nM) [%] | cell viability (Caco-2 [13]; 1 nM) [%] | cell viability (Caco-2 [13]; 10 nM) [%] | cell viability (Caco-2 [13]; 100 nM) [%] | cell viability (Caco-2 [13]; 1000 nM) [%] | cell viability (Caco-2 [13]; 10000 nM) [%] | cell viability (HepG2 [14]; 1 nM) [%] | cell viability (HepG2 [14]; 10 nM) [%] | cell viability (HepG2 [14]; 100 nM) [%] | cell viability (HepG2 [14]; 1000 nM) [%] | cell viability (HepG2 [14]; 10000 nM) [%] | cell viability (Vero E6 [15]; 1 nM) [%] | cell viability (Vero E6 [15]; 10 nM) [%] | cell viability (Vero E6 [15]; 100 nM) [%] | cell viability (Vero E6 [15]; 1000 nM) [%] | cell viability (Vero E6 [15]; 10000 nM) [%]
1 | CN(C)C(=N)NCCC[C@H](N)C(=O)O [asymmetrical-dimethylarginine] | 0 | 0 | 0 | 0 | 0 | > 10 | > 10 | > 10 | > 10 | > 10 | 107 | 99.9 | 112 | 102 | 97.9 | 100 | 93.2 | 96.2 | 93.5 | 97 | 101 | 99.4 | 97.9 | 93.3 | 101 | 86.7 | 96.8 | 95.1 | 105 | 101 | 97.4 | 101 | 96.5 | 101 | 90.7
2 | C[N+]1(C)[C@@H]2CC[C@H]1C[C@@H](OC(=O)C(CO)c1ccccc1)C2 (stereo not given in full) [methylatropine-nitrate] | 0 | 0 | 0 | 0 | 0 | > 10 | > 10 | > 10 | > 10 | > 10 | 93 | 100 | 108 | 97.2 | 106 | 95.4 | 95.4 | 100 | 100 | 101 | 96.9 | 93.4 | 108 | 104 | 99.6 | 96.7 | 105 | 102 | 98.7 | 99.8 | 95.6 | 98.8 | 95.3 | 99.1 | 104
3 | C[C@@H]1CC[C@@]2(NC1)O[C@H]1C[C@H]3[C@@H]4CC=C5C[C@@H](O[C@@H]6O[C@H](CO)[C@@H](O[C@@H]7O[C@@H](C)[C@H](O)[C@@H](O)[C@H]7O)[C@H](O)[C@H]6O[C@@H]6O[C@@H](C)[C@H](O)[C@@H](O)[C@H]6O)CC[C@]5(C)[C@H]4CC[C@]3(C)[C@H]1[C@@H]2C [solamargine] | 5.3 | 5.7 | 6.1 | 7.2 | 6.8 | 3.34 | 3.1 | 2.86 | 2.32 | 2.51 | 89 | 96.7 | 85.8 | 103 | 1 | 95.7 | 103 | 97.5 | 99.1 | 0.4 | 92 | 98 | 94.6 | 96 | 0.4 | 104 | 102 | 102 | 89.8 | 0.2 | 101 | 95.2 | 97.4 | 91.9 | 0
4 | CCN(CC)CCNc1ccc(CO)c2sc3ccccc3c(=O)c12 [hycanthone] | 0.2 | 0.1 | 2.7 | 9.1 | 5.6 | > 10 | > 10 | 3.5 | 1.55 | 1.87 | 101 | 110 | 101 | 102 | 84.8 | 100 | 101 | 96.2 | 104 | 85.2 | 90 | 106 | 111 | 104 | 44.2 | 101 | 96.5 | 84.2 | 70 | 0.7 | 104 | 101 | 103 | 88.5 | 32.8
